Our source for the T/C values is PubChem BioAssay AID330 (DTP/NCI, 2004).

For this test, the system named is P388 leukemia ip, CD2F1 mice, survival T/C. Put plainly: NCI In Vivo Anticancer Drug Screen. Data for tumor model P388 Leukemia (intraperitoneal) in CD2F1 (CDF1) mice. Conditions: endpoint: median survival time, higher = longer survival. The procedure, abridged:
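Mice carrying the transplanted tumor received test compound or vehicle. Survival was recorded in each group, and the value is the treated-group measurement divided by that of the vehicle-treated control group.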

Where [1] appears, read: dose: 50.0 mg/kg/injection, schedule: Q01DX009 (ip), vehicle: saline.
Setting [2] is: dose: 100.0 mg/kg/injection, schedule: Q01DX009 (ip), vehicle: saline.
[3] abbreviates: dose: 25.0 mg/kg/injection, schedule: Q04DX003 (ip), vehicle: saline with Tween-80.
Where [4] appears, read: dose: 50.0 mg/kg/injection, schedule: Q04DX003 (ip), vehicle: saline with Tween-80.
[5] abbreviates: dose: 100.0 mg/kg/injection, schedule: Q04DX003 (ip), vehicle: saline with Tween-80.
Setting [6] is: dose: 12.5 mg/kg/injection, schedule: Q01DX009 (ip), vehicle: Klucel (hydroxypropylcellulose) (HPC).
[7] abbreviates: dose: 25.0 mg/kg/injection, schedule: Q01DX009 (ip), vehicle: Klucel (hydroxypropylcellulose) (HPC).
[8] abbreviates: dose: 50.0 mg/kg/injection, schedule: Q01DX009 (ip), vehicle: Klucel (hydroxypropylcellulose) (HPC).
The mark [9] stands for this setting: dose: 100.0 mg/kg/injection, schedule: Q01DX009 (ip), vehicle: Klucel (hydroxypropylcellulose) (HPC).
The mark [10] stands for this setting: dose: 200.0 mg/kg/injection, schedule: Q01DX009 (ip), vehicle: Klucel (hydroxypropylcellulose) (HPC).
[11] abbreviates: dose: 50.0 mg/kg/injection, schedule: Q01DX009 (ip), vehicle: saline with Tween-80.
[12] abbreviates: dose: 100.0 mg/kg/injection, schedule: Q01DX009 (ip), vehicle: saline with Tween-80.
Where [13] appears, read: dose: 200.0 mg/kg/injection, schedule: Q01DX009 (ip), vehicle: saline with Tween-80.
Setting [14] is: dose: 60.0 mg/kg/injection, schedule: Q01DX005 (ip), vehicle: saline with Tween-80.
The mark [15] stands for this setting: dose: 120.0 mg/kg/injection, schedule: Q01DX005 (ip), vehicle: saline with Tween-80.
The mark [16] stands for this setting: dose: 240.0 mg/kg/injection, schedule: Q01DX005 (ip), vehicle: saline with Tween-80.
Setting [17] is: dose: 100.0 mg/kg/injection, schedule: Q04DX002 (ip), vehicle: Klucel (hydroxypropylcellulose) (HPC).
Setting [18] is: dose: 200.0 mg/kg/injection, schedule: Q04DX002 (ip), vehicle: Klucel (hydroxypropylcellulose) (HPC).
The mark [19] stands for this setting: dose: 400.0 mg/kg/injection, schedule: Q04DX002 (ip), vehicle: Klucel (hydroxypropylcellulose) (HPC).
[20] abbreviates: dose: 12.5 mg/kg/injection, schedule: Q01DX009 (ip), vehicle: saline.

Values joined by “and” are separate entries in the source; they are usually repeats but may differ in a detail not shown here. Equal values may be shown once. Inconclusive results and toxic doses are left out.

Turning to `CCCCCSSSCCCCC`, the T/C is, setting by setting: under setting [1], 101 % of control; under setting [2], 96 % of control; (dose: 200.0 mg/kg/injection, schedule: Q01DX009 (ip), vehicle: saline) 104 % of control.
As to `O=S1(=O)C=C(c2cccs2)C1`, the T/C is, setting by setting: under setting [3], 97 % of control; under setting [4], 109 % of control; under setting [5], 105 % of control and 112 % of control.
Turning to `CC(C)(C)C(=O)Nc1ccccc1-c1ccccc1`, the T/C by setting is: (dose: 100.0 mg/kg/injection, schedule: Q04DX003 (ip), vehicle: saline) 93 % of control; (dose: 200.0 mg/kg/injection, schedule: Q04DX003 (ip), vehicle: saline) 92 % of control; (dose: 400.0 mg/kg/injection, schedule: Q04DX003 (ip), vehicle: saline) 94 % of control.
`CC1(Cl)CC2OC3(Br)C=CC(C)(O)C2(CC1Br)C3(C)C` (stereo unspecified): the T/C was 101 % of control under setting [6], 100 % of control under setting [7], 100 % of control under setting [8] and 101 % of control under setting [9].
Consider `CCC1CN2CCc3cc(OC)c(OC)cc3C2C(C2(O)C(=O)Nc3ccccc32)C1=O` (stereo unspecified), for which the T/C is, setting by setting: under setting [8], 99 % of control; under setting [9], 100 % of control; under setting [10], 100 % of control.
Consider `Cc1c(CNc2ccc(C(=O)NC(CC(=O)O)CC(=O)O)cc2)ccc2nc(N)nc(N)c12`, for which the T/C is, setting by setting: (dose: 3.13 mg/kg/injection, schedule: Q04DX003 (ip), vehicle: saline) 229 % of control; (dose: 12.5 mg/kg/injection, schedule: Q04DX003 (ip), vehicle: saline with Tween-80) 118 % of control; under setting [3], 113 % of control; (dose: 33.0 mg/kg/injection, schedule: Q04DX003 (ip), vehicle: saline sonified) 90 % of control; (dose: 50.0 mg/kg/injection, schedule: Q04DX003 (ip), vehicle: saline sonified) 86 % of control; under setting [4], 159 % of control.
In the case of `O=C(CS)Nc1ccccn1`, the T/C under setting [6] was 104 % of control; the T/C under setting [7] is 103 % of control; the T/C under setting [8] was 103 % of control and 114 % of control.
As for `O=C(NC(=S)c1ccco1)NS(=O)(=O)c1ccc(Cl)cc1`, the T/C is 100 % of control (dose: 25.0 mg/kg/injection, schedule: Q01DX001 (ip), vehicle: saline with Tween-80); 95 % of control (dose: 50.0 mg/kg/injection, schedule: Q01DX001 (ip), vehicle: saline with Tween-80); 96 % of control (dose: 100.0 mg/kg/injection, schedule: Q01DX001 (ip), vehicle: saline with Tween-80).
Take `O=C(O)CCCCCOC(C[N+](=O)[O-])C(Cl)(Cl)Cl` (stereo unspecified): the T/C under setting [11] is 97 % of control, the T/C under setting [12] is 102 % of control and the T/C under setting [13] was 111 % of control.
As to `CC(=O)Nc1ccc(S(=O)(=O)NC2C(O)OC(CO)C(O)C2O)cc1` (stereo unspecified), the T/C reads like this: (dose: 50.0 mg/kg/injection, schedule: Q01DX005 (ip), vehicle: saline) 95 % of control; (dose: 100.0 mg/kg/injection, schedule: Q01DX005 (ip), vehicle: saline) 105 % of control; (dose: 200.0 mg/kg/injection, schedule: Q01DX005 (ip), vehicle: saline) 97 % of control.
As for `CCN(CC)CCOC(=O)c1ccc(N=NC2Sc3nc4ccccc4n3C2=O)cc1` (stereo unspecified), the T/C (dose: 7.5 mg/kg/injection, schedule: Q01DX005 (ip), vehicle: Klucel (hydroxypropylcellulose) (HPC)) is 92 % of control; the T/C (dose: 15.0 mg/kg/injection, schedule: Q01DX005 (ip), vehicle: Klucel (hydroxypropylcellulose) (HPC)) is 96 % of control; the T/C (dose: 30.0 mg/kg/injection, schedule: Q01DX005 (ip), vehicle: Klucel (hydroxypropylcellulose) (HPC)) was 96 % of control.
Regarding `N#CCCOCNC(=O)NCOCCC#N`, the T/C was 96 % of control under setting [14], 97 % of control under setting [15] and 90 % of control under setting [16].
In the case of `Cc1ccc(S(=O)CC(O)COCc2ccccc2)cc1` (stereo unspecified), the T/C is, setting by setting: under setting [11], 89 % of control; under setting [12], 94 % of control; under setting [13], 91 % of control.
With `CC1(C)N=NC2(Br)C3CCC(C3)C12` (stereo unspecified), the T/C by setting is: under setting [17], 102 % of control; under setting [18], 97 % of control; under setting [19], 100 % of control.
As to `O=C(O)COc1ccc(I)cc1I`, the T/C was 110 % of control (dose: 100.0 mg/kg/injection, schedule: Q04DX003 (ip), vehicle: Klucel (hydroxypropylcellulose) (HPC)) and 91 % of control (dose: 200.0 mg/kg/injection, schedule: Q04DX003 (ip), vehicle: Klucel (hydroxypropylcellulose) (HPC)).
Take `O=NNc1ccc(Sc2ccccc2)cn1`: the T/C was 153 % of control (dose: 6.25 mg/kg/injection, schedule: Q01DX009 (ip), vehicle: saline); 88 % of control and 90 % of control under setting [20].
`COC(=O)C1OC(SC(=N)N)C(OC(C)=O)C(OC(C)=O)C1OC(C)=O` (stereo unspecified): the T/C by setting is: (dose: 12.5 mg/kg/injection, schedule: Q01DX009 (ip), vehicle: water) 101 % of control; (dose: 25.0 mg/kg/injection, schedule: Q01DX009 (ip), vehicle: water) 109 % of control; (dose: 50.0 mg/kg/injection, schedule: Q01DX009 (ip), vehicle: water) 107 % of control and 117 % of control.
For `CNc1nc(C)nc(NC)n1`, the T/C under setting [8] is 91 % of control, the T/C under setting [9] was 93 % of control and the T/C under setting [10] was 90 % of control.
Regarding `CCCCOP(O)(=S)OCCCC`, the T/C reads like this: (dose: 100.0 mg/kg/injection, schedule: Q04DX002 (ip), vehicle: saline with Tween-80) 108 % of control; under setting [5], 105 % of control and 100 % of control; (dose: 200.0 mg/kg/injection, schedule: Q04DX002 (ip), vehicle: saline with Tween-80) 104 % of control; (dose: 200.0 mg/kg/injection, schedule: Q04DX003 (ip), vehicle: saline with Tween-80) 106 % of control and 100 % of control; (dose: 400.0 mg/kg/injection, schedule: Q04DX002 (ip), vehicle: saline with Tween-80) 95 % of control; (dose: 400.0 mg/kg/injection, schedule: Q04DX003 (ip), vehicle: saline with Tween-80) 101 % of control and 106 % of control.
In the case of `NC(=S)N/N=C1/C(=O)N(C2CCCCCC2)C(=O)C1C(=O)NC1CCCCCC1` (stereo unspecified), the T/C runs as follows: (dose: 12.5 mg/kg/injection, schedule: Q01DX005 (ip), vehicle: saline with Tween-80) 105 % of control; (dose: 25.0 mg/kg/injection, schedule: Q01DX005 (ip), vehicle: saline with Tween-80) 99 % of control; (dose: 50.0 mg/kg/injection, schedule: Q01DX005 (ip), vehicle: saline with Tween-80) 104 % of control and 90 % of control.
Regarding `Nc1ccc[nH]c1=O`, the T/C by setting is: under setting [20], 100 % of control and 113 % of control; (dose: 25.0 mg/kg/injection, schedule: Q01DX009 (ip), vehicle: saline) 103 % of control; under setting [1], 98 % of control and 103 % of control; under setting [2], 103 % of control and 113 % of control; (dose: 400.0 mg/kg/injection, schedule: Q01DX009 (ip), vehicle: saline) 100 % of control.
`CC(=O)OCC1Cn2c(c(-c3ccccc3)c(=O)[nH]c2=S)O1` (stereo unspecified): the T/C reads like this: under setting [17], 106 % of control; under setting [18], 107 % of control; under setting [19], 110 % of control.
`O=C1OC(c2c[nH]c3ccccc3c2=O)c2ccccc21` (stereo unspecified): the T/C under setting [14] was 103 % of control, the T/C under setting [15] is 95 % of control and the T/C under setting [16] is 88 % of control.
